We go through one substance from US11040087B2, “Therapeutic agent for diseases associated with abnormalities in dystroglycan sugar chain modification and method for assaying associated enzyme” (NATIONAL UNIVERSITY CORPORATION KOBE UNIVERSITY, priority 2016, dated 2021).

Test [1] concerns ISPD-deficient HAP1 cells. The following applies: ISPD-deficient (KO) HAP1 cells; CDP-ribitol added to culture medium at final concentration 1 mM; culture 24 hours; western blot. On the procedure:
(§1) In this Example, for HAP1 cells and HEK cells, cells deficient in ISPD were generated using a CRISPR/CAS9 genome editing method. The HAP1 cells are a haploid cell line derived from cultured human leukemia cells (KBM7), and are cells capable of being subjected to genome editing with high efficiency.
(§2) The deficiency mutation of the ISPD-deficient cells was confirmed by DNA sequencing. To each culture medium, CDP-ribitol was added at a final concentration of 1 mM, followed by culture for 24 hours. After the culture, cell endogenous dystroglycan was prepared from a cell extract, and the state of glycosylation was confirmed by a western blot method.

The subject of another test is ISPD-deficient HEK cells. The following applies: ISPD-deficient (KO) HEK cells; CDP-ribitol 1 mM administered simultaneously with cell transfection reagent (lipofectamine); culture 24 hours; western blot. As for the experimental part: as §1, §2

“cytidine diphosphate ribitol [CDP-ribitol]”: the “state of glycosylation of cell endogenous dystroglycan (α-DG)” value is reported as “caused glycosylation of α-DG similar to that in the normal cells” in test [1] and “the restoration of the glycan was confirmed” in the test on ISPD-deficient HEK cells.
